Experimental data: ChEMBL document CHEMBL1147424, “TMC-95A, a reversible proteasome inhibitor, induces neurite outgrowth in PC12 cells” (2004)

Test system: PC-12
Experiment: Neuritogenic activity of compound in PC12 rat pheochromocytoma cells was evaluated at dose of 20 uM; Positive neurite initiation after 16 hour incubation
Format: functional

C/C=C\NC(=O)C1NC(=O)[C@H](CC(N)=O)NC(=O)[C@@H](NC(=O)C(=O)[C@@H](C)CC)Cc2ccc(O)c(c2)-c2cccc3c2NC(=O)[C@@]3(O)[C@@H]1O (stereo partly specified)
Activity: 60%
